US20200316050A1, “A TOPICAL COMPOSITION BASED ON NIACINAMIDE DERIVATIVE” (Conopco, Inc., d/b/a UNILEVER, priority 2017, published 2020)

Test system: Human neonatal primary skin keratinocyte (NHEK) cells
Experiment: psoriasin (AMP marker) secretion by human keratinocytes, ELISA of culture supernatant
Type: cell-based
Details: 72 hours incubation, KGM with 2 mM calcium chloride
Description: Step 1: Human neonatal primary skin keratinocyte (NHEK) cells was obtained from Lonza ®. The experiment was done with the above-mentioned cells with passage between 3 and 4. Then, the cells were seeded (35,000 cells/well) in 24 well plate with keratinocyte growth media (KGM) obtained from Invitrogen®. The plate was then incubated at 37±2° C. in a CO2 incubator for 48 hours.
Step 2: After 48 hours of incubation, cell differentiation was induced by replacing media with fresh KGM supplemented with 2 mM calcium chloride solution. This was then followed by incubation at 37±2° C. in a CO2 incubator for 48 hours.
Step 3: After that, the cells were treated with different concentration (as outlined table 1 below) of N-cyclopentyl nicotinamide, with keratinocyte growth media supplemented with 2mM calcium chloride solution:
Step 4: After the above treatment, cells were again incubated at 37±2° C. in a CO2 incubator for 72 hours.
Step 5: After 72 hours of incubation, cell culture supernatant from each well was collected in a sterile tube. The samples were then stored at -80° C. until used for testing psoriasin secretion by standard ELISA technique using psoriasin ELISA kit obtained from Circulx® (No: CY-8073). In the current experiment, psoriasin was used as a marker for AMP.
Step 6: The ELISA method was performed by using 100 μL of cell culture supernatant from each sample.
The data is expressed in terms of fold change over control (no treatment:
Example A). The fold change in psoriasin levels in case of control (example A) is taken to be equal to 1 fold. Any fold change in psoriasin obtained due to treatments outlined in all the other examples was over and above the 1 fold change obtained from the control.

For `NC(=O)c1cccnc1` [B, Niacinamide], the “Fold Change in psoriasin levels over control (no treatment, Example A = 1)” value (“Fold Change … (no treatment, Example A = 1)” for short) (200 μg/mL) was 0.9 fold and the “Fold Change … (no treatment, Example A = 1)” value (500 μg/mL) was 1.4 fold.

With `O=C(NC1CCCC1)c1cccnc1` [Example 1, N-cyclopentyl nicotinamide] the “Fold Change … (no treatment, Example A = 1)” value (200 μg/mL) was 2.06 fold and the “Fold Change … (no treatment, Example A = 1)” value (400 μg/mL) was 2.84 fold.
